# Assay results reported in patent publication US20130224234A1, “TTLL4 PEPTIDES AND VACCINES CONTAINING THE SAME” (Onco Therapy Science, Inc., priority 2010, published 2013).
# Entries after “also recorded” stand apart in the source; their conditions may differ.
# What was measured:
# [1] = test system: peptide-pulsed TISI cells; assay: IFN-gamma ELISA assay of CTL lines (HLA-A*2402); type: cell-based, human; settings: CTL lines stimulated with peptide, target cells pulsed with peptide vs without peptide pulse
# Protocol: CTLs were expanded in culture using the method similar to the one described by Riddell et al. (Walter E A et al., N Engl J Med 1995 333(16): 1038-44; Riddell S R et al., Nat Med 1996, 2(2): 216-23). A total of 5×10^4 CTLs were suspended in 25 ml of AIM-V/5% AS medium with 2 kinds of human B-lymphoblastoid cell lines, inactivated by Mitomycin C, in the presence of 40 ng/ml of anti-CD3 monoclonal antibody (Pharmingen). One day after initiating the cultures, 120 IU/ml of IL-2 were added to the cultures. The cultures were fed with fresh AIM-V/5% AS medium containing 30 IU/ml of IL-2 on days 5, 8 and 11 (Tanaka H et al., Br J Cancer 2001, 84(1): 94-9; Umano Y et al., Br J Cancer 2001, 84(8): 1052-7; Uchida N et al., Clin Cancer Res 2004, 10(24): 8577-86; Suda T et al., Cancer Sci 2006, 97(5): 411-9; Watanabe T et al., Cancer Sci 2005, 96(8): 498-506).
# (§1) Specifically, peptide-pulsed TISI (1×10^4/well) was prepared as stimulator cells. Cultured cells in 48 wells were used as responder cells. IFN-gamma ELISPOT assay and IFN-gamma ELISA assay were performed under manufacture procedure.
# (§2) CTL activity of these CTL lines was determined by IFN-gamma ELISA assay (FIG. 2a-f). […] Furthermore, the CTL clones were established by limiting dilution from the CTL lines as described in “Materials and Methods”, and IFN-gamma production from the CTL clones against target cells pulsed peptide was determined by IFN-gamma ELISA assay. […] (FIG. 3a-d).
# [2] = test system: COS7 cells transfected with TTLL4 and HLA-A*2402; assay: Specific CTL activity against target cells expressing TTLL4 and HLA-A*2402; type: cell-based, African green monkey; settings: for Specific CTL activity against COS7 cells transfected with both TTLL4 and HLA-A*2402: CTL line (9-103) or CTL clones (10-103, 10-773) established with peptide; for Specific CTL activity against control COS7 cells expressing either HLA-A*2402 or TTLL4: controls: COS7 transfected with only full length TTLL4 or only HLA-A*2402
# Source text: The cDNA encoding an open reading frame of target genes or HLA-A*2402 was amplified by PCR. The PCR-amplified product was cloned into a vector. The plasmids were transfected into COS7, which is the target genes and HLA-A*2402-null cell line, using lipofectamine 2000 (Invitrogen) according to the manufacturer's recommended procedures. After 2 days from transfection, the transfected cells were harvested with versene (Invitrogen) and used as the target cells (5×10^4 cells/well) for CTL activity assay.
# The established CTL lines and clones raised against each peptide were examined for the ability to recognize target cells that express TTLL4 and HLA-A*2402 molecule. […] COS7 cells transfected with either full length of TTLL4 or HLA-A*2402 were prepared as the controls.
# [3] = test system: peptide-pulsed TISI cells; assay: IFN-gamma ELISA assay of CTL clones (HLA-A*2402); type: cell-based, human; settings: CTL clones by limiting dilution, target cells pulsed with peptide vs control
# Protocol: The dilutions were made to have 0.3, 1, and 3 CTLs/well in 96 round-bottomed micro titer plate (Nalge Nunc International). CTLs were cultured with 1×10^4 cells/well of 2 kinds of human B-lymphoblastoid cell lines, 30 ng/ml of anti-CD3 antibody, and 125 U/ml of IL-2 in a total of […] of AIM-V Medium containing 5% AS. 50 micro-l/well of IL-2 were added to the medium 10 days later so to reach a final concentration of 125 U/ml IL-2. CTL activity was tested on the 14th day, and CTL clones were expanded using the same method as described above (Uchida N et al., Clin Cancer Res 2004, 10(24): 8577-86; Suda T et al., Cancer Sci 2006, 97(5): 411-9; Watanabe T et al., Cancer Sci 2005, 96(8): 498-506).
# as §1, §2
# [4] = test system: peptide-pulsed TISI cells; assay: In vitro CTL induction, IFN-gamma ELISPOT assay (HLA-A*2402); type: cell-based, human; settings: CTLs induced with peptide from HLA-A*2402 positive donor, peptide-pulsed TISI vs control
# Source text: Monocyte-derived dendritic cells (DCs) were used as antigen-presenting cells to induce cytotoxic T lymphocyte (CTL) responses against peptides presented on human leukocyte antigen (HLA). DCs were generated in vitro as described elsewhere (Nakahara S et al., Cancer Res 2003, 63(14): 4112-8). Specifically, peripheral blood mononuclear cells isolated from a normal volunteer (HLA-A*2402 positive) by Ficoll-Plaque (Pharmacia) solution were separated by adherence to a plastic tissue culture dish (Becton Dickinson) so as to enrich them as the monocyte fraction. The monocyte-enriched population was cultured in the presence of 1000 U/ml of granulocyte-macrophage colony-stimulating factor (R&D System) and 1000 U/ml of interleukin (IL)-4 (R&D System) in AIM-V Medium (Invitrogen) containing 2% heat-inactivated autologous serum (AS). After 7 days of culture, the cytokine-induced DCs were pulsed with 20 micro-g/ml of each of the synthesized peptides in the presence of 3 micro-g/ml of beta 2-microglobulin for 3 hr at 37 degrees C. in AIM-V Medium. The generated cells appeared to express DC-associated molecules, such as CD80, CD83, CD86 and HLA class II, on their cell surfaces (data not shown). These peptide-pulsed DCs were then inactivated by X-irradiation (20 Gy) and mixing at a 1:20 ratio with autologous CD8+ T cells, obtained by positive selection with CD8 Positive Isolation Kit (Dynal). These cultures were set up in 48-well plates (Corning); each well contained 1.5×10^4 peptide-pulsed DCs, 3×10^5 CD8+ T cells and 10 ng/ml of IL-7 (R&D System) in 0.5 ml of AIM-V/2% AS medium. Three days later, these cultures were supplemented with IL-2 (CHIRON) to a final concentration of 20 IU/ml. On day 7 and 14, the T cells were further stimulated with the autologous peptide-pulsed DCs. The DCs were prepared each time by the same way described above. CTL was tested against peptide-pulsed TISI cells after the 3rd round of peptide stimulation on day 21 (Tanaka H et al., Br J Cancer 2001, 84(1): 94-9; Umano Y et al., Br J Cancer 2001, 84(8): 1052-7; Uchida N et al., Clin Cancer Res 2004, 10(24): 8577-86; Suda T et al., Cancer Sci 2006, 97(5): 411-9; Watanabe T et al., Cancer Sci 2005, 96(8): 498-506).
# as §1
# CTLs for those peptides derived from TTLL4 were generated according to the protocols as described in “Materials and Methods”.
sequence,measurement,setting,value
CYLHSLPDLF [SEQ ID NO: 20],IFN-gamma production of CTL lines (ELISA),[1],potent IFN-gamma production
same,Specific CTL activity against COS7 cells transfected with both TTLL4 and HLA-A*2402,[2]; listed as TTLL4-A24-10-103,specific CTL activity; also recorded: potent CTL activity
same,Specific CTL activity against control COS7 cells expressing either HLA-A*2402 or TTLL4,[2],no significant specific CTL activity was detected
same,IFN-gamma production of CTL clones (ELISA),[3]; listed as TTLL4-A24-10-103,Potent IFN-gamma productions
same,"Peptide specific CTL activity (IFN-gamma production, ELISPOT)",[4]; listed as TTLL4-A24-10-103,potent IFN-gamma production; also recorded: significant and specific CTL activity
AYFFCPSTL [SEQ ID NO: 6],IFN-gamma production of CTL lines (ELISA),[1],potent IFN-gamma production
same,IFN-gamma production of CTL clones (ELISA),[3]; listed as TTLL4-A24-9-79,Potent IFN-gamma productions
same,"Peptide specific CTL activity (IFN-gamma production, ELISPOT)",[4]; listed as TTLL4-A24-9-79,potent IFN-gamma production; also recorded: significant and specific CTL activity
RYLHKPYLI [SEQ ID NO: 1],IFN-gamma production of CTL lines (ELISA),[1],potent IFN-gamma production
same,IFN-gamma production of CTL clones (ELISA),[3]; listed as TTLL4-A24-9-750,Potent IFN-gamma productions
same,"Peptide specific CTL activity (IFN-gamma production, ELISPOT)",[4]; listed as TTLL4-A24-9-750,potent IFN-gamma production; also recorded: significant and specific CTL activity
SYDPLRIYLF [SEQ ID NO: 21],IFN-gamma production of CTL lines (ELISA),[1],potent IFN-gamma production
same,Specific CTL activity against COS7 cells transfected with both TTLL4 and HLA-A*2402,[2]; listed as TTLL4-A24-10-773,specific CTL activity; also recorded: potent CTL activity
same,Specific CTL activity against control COS7 cells expressing either HLA-A*2402 or TTLL4,[2],no significant specific CTL activity was detected
same,IFN-gamma production of CTL clones (ELISA),[3]; listed as TTLL4-A24-10-773,Potent IFN-gamma productions
same,"Peptide specific CTL activity (IFN-gamma production, ELISPOT)",[4]; listed as TTLL4-A24-10-773,potent IFN-gamma production; also recorded: significant and specific CTL activity
